Test system: 857933-349-R-J2-PDC complex spheroid viability
Experiment: Anticancer human tumor 857933-349-R-J2-PDC patient-derived colon adenocarcinoma cell line growth inhibition [POLQ]
Conditions: for IC50: curve of first compound; for viability, T/C: stronger effect = lower value
How it was run: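 PDC + HUVEC + MSC complex spheroids; POLQ inhibitors ± partner drugs; top conc. at/near clinical Cmax, else 10 microM (SN-38 1 microM), half-log dilutions; 37 degrees C, 5% CO2.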

[1] = second compound 0.0316 µM, first compound 0.0316 µM
[2] = second compound 0.0316 µM, first compound 0.1 µM
[3] = second compound 0.1 µM, first compound 0.0316 µM
[4] = second compound 0.1 µM, first compound 0.1 µM
[5] = second compound 0.316 µM, first compound 0.0316 µM
[6] = second compound 0.316 µM, first compound 0.1 µM
[7] = second compound 1 µM, first compound 0.0316 µM
[8] = second compound 1 µM, first compound 0.1 µM
[9] = second compound 3.16 µM, first compound 0.0316 µM
[10] = second compound 3.16 µM, first compound 0.1 µM
[11] = second compound 10 µM, first compound 0.0316 µM
[12] = second compound 10 µM, first compound 0.1 µM
[13] = second compound 0.0316 µM, first compound 0.316 µM
[14] = second compound 0.0316 µM, first compound 1 µM
[15] = second compound 0.0316 µM, first compound 3.16 µM
[16] = second compound 0.0316 µM, first compound 10 µM
[17] = second compound 0.1 µM, first compound 0.316 µM
[18] = second compound 0.1 µM, first compound 1 µM
[19] = second compound 0.1 µM, first compound 3.16 µM
[20] = second compound 0.1 µM, first compound 10 µM
[21] = second compound 0.316 µM, first compound 0.316 µM
[22] = second compound 0.316 µM, first compound 1 µM
[23] = second compound 0.316 µM, first compound 3.16 µM
[24] = second compound 0.316 µM, first compound 10 µM
[25] = second compound 1 µM, first compound 0.316 µM
[26] = second compound 1 µM, first compound 1 µM
[27] = second compound 1 µM, first compound 3.16 µM
[28] = second compound 1 µM, first compound 10 µM
[29] = second compound 3.16 µM, first compound 0.316 µM
[30] = second compound 3.16 µM, first compound 1 µM
[31] = second compound 3.16 µM, first compound 3.16 µM
[32] = second compound 3.16 µM, first compound 10 µM
[33] = second compound 10 µM, first compound 0.316 µM
[34] = second compound 10 µM, first compound 1 µM
[35] = second compound 10 µM, first compound 3.16 µM
[36] = second compound 10 µM, first compound 10 µM
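Further: spheroids exposed to compounds for seven days before readout.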

In the case of `Cn1ncnc1[C@H]1c2n[nH]c(=O)c3cc(F)cc(c23)N[C@@H]1c1ccc(F)cc1` + Cc1cccc(N(C)C(=O)C2C(O)CCN2c2nc(C)cc(C(F)(F)F)c2C#N)c1, the IC50 (second compound 0.0316 µM) is reported as > 100 nM, the IC50 (second compound 0.1 µM) is reported as > 100 nM and the IC50 (second compound 0.316 µM) is reported as > 100 nM. The IC50 (second compound 1 µM) was > 100 nM, the IC50 (second compound 3.16 µM) was > 100 nM and the IC50 (second compound 10 µM) was > 100 nM. For the same compound, the viability, T/C (second compound 0.0316 µM, first compound 0.000316 µM) was 101%, the viability, T/C (second compound 0.0316 µM, first compound 0.001 µM) was 115% and the viability, T/C (second compound 0.0316 µM, first compound 0.00316 µM) was 114%. For the same compound, the viability, T/C (second compound 0.0316 µM, first compound 0.01 µM) was 125%, the viability, T/C [1] was 98.2% and the viability, T/C [2] was 97.3%. For the same compound, the viability, T/C (second compound 0.1 µM, first compound 0.000316 µM) was 110%, the viability, T/C (second compound 0.1 µM, first compound 0.001 µM) was 116% and the viability, T/C (second compound 0.1 µM, first compound 0.00316 µM) was 120%. The viability, T/C (second compound 0.1 µM, first compound 0.01 µM) was 80%, the viability, T/C [3] was 101% and the viability, T/C [4] was 103%. The viability, T/C (second compound 0.316 µM, first compound 0.000316 µM) was 97.5%, the viability, T/C (second compound 0.316 µM, first compound 0.001 µM) was 102% and the viability, T/C (second compound 0.316 µM, first compound 0.00316 µM) was 95.8%. The viability, T/C (second compound 0.316 µM, first compound 0.01 µM) was 86.2%, the viability, T/C [5] was 101% and the viability, T/C [6] was 99.8%. It also gave a viability, T/C (second compound 1 µM, first compound 0.000316 µM) of 85.1%, a viability, T/C (second compound 1 µM, first compound 0.001 µM) of 96.5% and a viability, T/C (second compound 1 µM, first compound 0.00316 µM) of 80.9%. It also gave a viability, T/C (second compound 1 µM, first compound 0.01 µM) of 82%, a viability, T/C [7] of 103% and a viability, T/C [8] of 95.2%. It also gave a viability, T/C (second compound 3.16 µM, first compound 0.000316 µM) of 96.4%, a viability, T/C (second compound 3.16 µM, first compound 0.001 µM) of 116% and a viability, T/C (second compound 3.16 µM, first compound 0.00316 µM) of 92.7%. For the same compound, the viability, T/C (second compound 3.16 µM, first compound 0.01 µM) was 108%, the viability, T/C [9] was 96.2% and the viability, T/C [10] was 97.1%. For the same compound, the viability, T/C (second compound 10 µM, first compound 0.000316 µM) was 91%, the viability, T/C (second compound 10 µM, first compound 0.001 µM) was 115% and the viability, T/C (second compound 10 µM, first compound 0.00316 µM) was 108%. It also gave a viability, T/C (second compound 10 µM, first compound 0.01 µM) of 112%, a viability, T/C [11] of 110% and a viability, T/C [12] of 104%.
For `CCc1cc2c(N3CCc4c(cc(Cn5ccnc5)cc4-c4cn(C)nc4C(F)(F)F)C3=O)ccnc2c(OC)n1` + Nc1ccc(C#CCN(C(=O)Cc2ncc(C(F)(F)F)cc2C(F)(F)F)c2ccc(F)cc2)nn1, the IC50 (second compound 0.0316 µM) was > 10000 nM, the IC50 (second compound 0.1 µM) was > 10000 nM and the IC50 (second compound 0.316 µM) was > 10000 nM. The IC50 (second compound 1 µM) was > 10000 nM, the IC50 (second compound 3.16 µM) was > 10000 nM and the IC50 (second compound 10 µM) was 6060 nM. It also gave a viability, T/C [1] of 93.9%, a viability, T/C [2] of 96.4% and a viability, T/C [13] of 76.3%. It also gave a viability, T/C [14] of 87.7%, a viability, T/C [15] of 59.2% and a viability, T/C [16] of 59.2%. The viability, T/C [3] was 97.3%, the viability, T/C [4] was 101% and the viability, T/C [17] was 94.5%. The viability, T/C [18] was 93%, the viability, T/C [19] was 70% and the viability, T/C [20] was 58.5%. The viability, T/C [5] was 82%, the viability, T/C [6] was 86% and the viability, T/C [21] was 94.5%. It also gave a viability, T/C [22] of 84.1%, a viability, T/C [23] of 77% and a viability, T/C [24] of 55.1%. For the same compound, the viability, T/C [7] was 97.6%, the viability, T/C [8] was 90.2% and the viability, T/C [25] was 95.1%. It also gave a viability, T/C [26] of 77.2%, a viability, T/C [27] of 71.1% and a viability, T/C [28] of 65.3%. The viability, T/C [9] was 97.6%, the viability, T/C [10] was 89.9% and the viability, T/C [29] was 104%. It also gave a viability, T/C [30] of 83%, a viability, T/C [31] of 68.3% and a viability, T/C [32] of 62.8%. For the same compound, the viability, T/C [11] was 83.5%, the viability, T/C [12] was 77.3% and the viability, T/C [33] was 79.6%. It also gave a viability, T/C [34] of 75.7%, a viability, T/C [35] of 54.4% and a viability, T/C [36] of 46.6%.
For `CC1COCCN1c1cc(C2(O)CC3CCC(C2)O3)c2cnn(-c3ccn[nH]3)c2n1` (stereo not drawn) + COC1C(OC(N)=O)C(O)C(Oc2ccc3c(O)c(NC(=O)c4ccc(O)c(CC=C(C)C)c4)c(=O)oc3c2C)OC1(C)C, the IC50 (second compound 0.0316 µM) was 249 nM, the IC50 (second compound 0.1 µM) was 279 nM and the IC50 (second compound 0.316 µM) was 334 nM. The IC50 (second compound 1 µM) was 285 nM, the IC50 (second compound 3.16 µM) was 171 nM and the IC50 (second compound 10 µM) was 339 nM. The viability, T/C [1] was 76.3%, the viability, T/C [2] was 61.5% and the viability, T/C [13] was 48.2%. For the same compound, the viability, T/C [14] was 39%, the viability, T/C [15] was 40.7% and the viability, T/C [16] was 49.7%. The viability, T/C [3] was 111%, the viability, T/C [4] was 57.7% and the viability, T/C [17] was 59.4%. It also gave a viability, T/C [18] of 37.7%, a viability, T/C [19] of 40.2% and a viability, T/C [20] of 47%. It also gave a viability, T/C [5] of 63.3%, a viability, T/C [6] of 68.1% and a viability, T/C [21] of 50.3%. For the same compound, the viability, T/C [22] was 41%, the viability, T/C [23] was 43.1% and the viability, T/C [24] was 46.7%. It also gave a viability, T/C [7] of 94.3%, a viability, T/C [8] of 58.1% and a viability, T/C [25] of 50.4%. For the same compound, the viability, T/C [26] was 41.2%, the viability, T/C [27] was 49.9% and the viability, T/C [28] was 51.4%. It also gave a viability, T/C [9] of 75.2%, a viability, T/C [10] of 54.5% and a viability, T/C [29] of 45.5%. It also gave a viability, T/C [30] of 38.1%, a viability, T/C [31] of 43.3% and a viability, T/C [32] of 50%. The viability, T/C [11] was 71.5%, the viability, T/C [12] was 63.6% and the viability, T/C [33] was 52.8%. For the same compound, the viability, T/C [34] was 36.7%, the viability, T/C [35] was 45.6% and the viability, T/C [36] was 47.9%.
Work on `COc1cc(C2c3cc4c(cc3C(OC3OC5COC(C)OC5C(O)C3O)C3COC(=O)C23)OCO4)cc(OC)c1O` (stereo not drawn) + Cc1cccc(N(C)C(=O)C2C(O)CCN2c2nc(C)cc(C(F)(F)F)c2C#N)c1 yielded an IC50 (second compound 0.0316 µM) of 725 nM, an IC50 (second compound 0.1 µM) of 547 nM and an IC50 (second compound 0.316 µM) of 797 nM. It also gave an IC50 (second compound 1 µM) of 541 nM, an IC50 (second compound 3.16 µM) of 240 nM and an IC50 (second compound 10 µM) of 323 nM. For the same compound, the viability, T/C [1] was 86.1%, the viability, T/C [2] was 81.9% and the viability, T/C [13] was 60%. The viability, T/C [14] was 47%, the viability, T/C [15] was 37.1% and the viability, T/C [16] was 33.9%. For the same compound, the viability, T/C [3] was 111%, the viability, T/C [4] was 92.6% and the viability, T/C [17] was 51.5%. For the same compound, the viability, T/C [18] was 49.3%, the viability, T/C [19] was 42.4% and the viability, T/C [20] was 27.2%. It also gave a viability, T/C [5] of 83.2%, a viability, T/C [6] of 83% and a viability, T/C [21] of 60%. For the same compound, the viability, T/C [22] was 49.9%, the viability, T/C [23] was 36% and the viability, T/C [24] was 35.2%. For the same compound, the viability, T/C [7] was 86.5%, the viability, T/C [8] was 68.5% and the viability, T/C [25] was 60.4%. For the same compound, the viability, T/C [26] was 40%, the viability, T/C [27] was 36.5% and the viability, T/C [28] was 34.7%. The viability, T/C [9] was 72.3%, the viability, T/C [10] was 80.5% and the viability, T/C [29] was 41.6%. It also gave a viability, T/C [30] of 36%, a viability, T/C [31] of 38% and a viability, T/C [32] of 33.4%. The viability, T/C [11] was 79.1%, the viability, T/C [12] was 66% and the viability, T/C [33] was 49.1%. It also gave a viability, T/C [34] of 40.9%, a viability, T/C [35] of 37.9% and a viability, T/C [36] of 33.3%.

From PubChem BioAssay AID1963836 (Molecular Pharmacology Branch, DTP, NCI, 2024)
